Test results from ChEMBL document CHEMBL2073829, “Heterologous expression of a mammalian ABC transporter in plant and its application to phytoremediation” (Plant Mol Biol, 2006).

Target: Multidrug resistance-associated protein 1 (Homo sapiens, UniProt P33527)
Experiment: TP_TRANSPORTER: growth inhibition in hMRP1-expressing tobacco
Type: functional, organism-based, (cultivar) Samsun NN
Conditions: nicotiana tabacum, in vivo

Multidrug resistance-associated protein 1, sequence (P33527 whole entry): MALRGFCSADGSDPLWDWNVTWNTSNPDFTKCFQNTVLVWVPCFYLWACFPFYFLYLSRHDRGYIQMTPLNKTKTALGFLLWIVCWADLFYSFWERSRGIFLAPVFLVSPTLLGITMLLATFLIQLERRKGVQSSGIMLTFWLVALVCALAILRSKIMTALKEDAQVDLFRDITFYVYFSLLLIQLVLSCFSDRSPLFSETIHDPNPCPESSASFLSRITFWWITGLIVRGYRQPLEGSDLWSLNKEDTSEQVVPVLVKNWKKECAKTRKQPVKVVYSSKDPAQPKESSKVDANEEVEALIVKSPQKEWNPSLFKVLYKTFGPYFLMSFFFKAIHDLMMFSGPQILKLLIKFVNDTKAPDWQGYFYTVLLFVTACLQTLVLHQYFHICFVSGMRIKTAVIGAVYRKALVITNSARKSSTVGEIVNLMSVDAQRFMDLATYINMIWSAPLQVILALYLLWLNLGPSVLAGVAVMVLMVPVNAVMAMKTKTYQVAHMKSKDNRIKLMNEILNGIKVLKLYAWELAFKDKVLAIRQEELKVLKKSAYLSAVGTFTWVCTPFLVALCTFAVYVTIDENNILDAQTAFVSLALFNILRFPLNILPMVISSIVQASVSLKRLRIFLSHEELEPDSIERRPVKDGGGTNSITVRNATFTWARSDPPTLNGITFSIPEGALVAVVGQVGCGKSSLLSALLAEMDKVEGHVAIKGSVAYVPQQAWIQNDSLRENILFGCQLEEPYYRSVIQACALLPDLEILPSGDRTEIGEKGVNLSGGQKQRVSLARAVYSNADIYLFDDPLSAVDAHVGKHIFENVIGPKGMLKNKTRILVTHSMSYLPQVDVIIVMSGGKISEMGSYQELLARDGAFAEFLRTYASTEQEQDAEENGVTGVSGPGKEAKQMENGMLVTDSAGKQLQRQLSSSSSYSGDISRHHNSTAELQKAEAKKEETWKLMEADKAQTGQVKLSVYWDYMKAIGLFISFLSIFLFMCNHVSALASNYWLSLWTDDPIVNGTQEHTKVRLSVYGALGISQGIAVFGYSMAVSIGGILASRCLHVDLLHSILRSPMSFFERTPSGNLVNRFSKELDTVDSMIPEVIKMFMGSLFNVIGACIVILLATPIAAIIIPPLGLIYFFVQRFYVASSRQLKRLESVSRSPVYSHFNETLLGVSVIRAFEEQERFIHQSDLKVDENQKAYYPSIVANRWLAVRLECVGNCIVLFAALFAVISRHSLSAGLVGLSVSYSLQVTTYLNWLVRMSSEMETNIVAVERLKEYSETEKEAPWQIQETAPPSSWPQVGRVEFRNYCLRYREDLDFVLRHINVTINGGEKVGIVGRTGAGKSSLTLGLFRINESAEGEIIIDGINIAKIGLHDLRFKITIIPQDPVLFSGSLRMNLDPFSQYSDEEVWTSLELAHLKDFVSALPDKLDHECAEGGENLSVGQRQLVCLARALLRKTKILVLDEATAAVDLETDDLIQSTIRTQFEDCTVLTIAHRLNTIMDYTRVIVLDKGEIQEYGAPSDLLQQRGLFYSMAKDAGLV

## CADMIUM
  Activity: substrate []
